Legend:
Experiment in all cases: relative viability (nuclei count vs DMSO), 5 days (fraction); higher = more cells survive
[1] = compound: O=C(O)c1ccc2c(c1)nc(Nc1cccc(Cl)c1)c1ccncc12 [Silmitasertib] + CS(=O)(=O)CCNCc1ccc(-c2ccc3ncnc(Nc4ccc(OCc5cccc(F)c5)c(Cl)c4)c3c2)o1 [Lapatinib] (partner 2 µM)
Summary of the method: (§1)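 Relative viability equals treated-well nuclei counts divided by vehicle-well nuclei counts. Counts came from 4× images of lung cancer cell lines grown in 1536-well plates for 5 days after pin-tool dosing on the day after seeding. Dosing used one drug alone or a fixed anchor-drug dose plus five library-drug doses (not always all listed) in √10 steps, and values are medians of duplicate plates.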

[2] = compound: O=C(O)c1ccc2c(c1)nc(Nc1cccc(Cl)c1)c1ccncc12 [Silmitasertib] + CC(=O)Nc1cccc(-n2c(=O)n(C3CC3)c(=O)c3c(Nc4ccc(I)cc4F)n(C)c(=O)c(C)c32)c1 [Trametinib] (partner 0.02 µM)
Summary of the method: as §1

[3] = compound: O=C(O)c1ccc2c(c1)nc(Nc1cccc(Cl)c1)c1ccncc12 [Silmitasertib] + CS(=O)(=O)N1CCN(Cc2cc3nc(-c4cccc5[nH]ncc45)nc(N4CCOCC4)c3s2)CC1 [Pictilisib] (partner 1 µM)
Summary of the method: as §1

[4] = compound: O=C(O)c1ccc2c(c1)nc(Nc1cccc(Cl)c1)c1ccncc12 [Silmitasertib] + CC(=O)c1c(C)c2cnc(Nc3ccc(N4CCNCC4)cn3)nc2n(C2CCCC2)c1=O [Palbociclib] (partner 0.5 µM)
Summary of the method: as §1

[5] = compound: O=C(O)c1ccc2c(c1)nc(Nc1cccc(Cl)c1)c1ccncc12 [Silmitasertib] + CCNC(=O)c1noc(-c2cc(C(C)C)c(O)cc2O)c1-c1ccc(CN2CCOCC2)cc1 [Luminespib] (partner 0.01 µM)
Summary of the method: as §1

Cell Line | relative viability ([1]; first compound 0.04 µM) | relative viability ([1]; first compound 0.4 µM) | relative viability ([1]; first compound 1.265 µM) | relative viability ([1]; first compound 4 µM) | relative viability ([2]; first compound 0.04 µM) | relative viability ([2]; first compound 1.265 µM) | relative viability ([2]; first compound 4 µM) | relative viability ([3]; first compound 0.04 µM) | relative viability ([3]; first compound 0.4 µM) | relative viability ([3]; first compound 1.265 µM) | relative viability ([3]; first compound 4 µM) | relative viability ([4]; first compound 0.04 µM) | relative viability ([4]; first compound 1.265 µM) | relative viability ([4]; first compound 4 µM) | relative viability ([5]; first compound 0.04 µM) | relative viability ([5]; first compound 0.4 µM) | relative viability ([5]; first compound 1.265 µM) | relative viability ([5]; first compound 4 µM) | relative viability ([2]; first compound 0.4 µM) | relative viability ([4]; first compound 0.4 µM)
EKVX | 0.236 | 0.192 | 0.157 | 0.144 | 0.385 | 0.269 | 0.47 | 0.491 | 0.356 | 0.373 | 0.383 | 0.439 | 0.336 | 0.423 | 0.986 | 0.605 | 0.718 | 0.884 | – | –
EMC-BAC-2 | 0.963 | 0.884 | 0.66 | 0.586 | 0.977 | 0.684 | 0.698 | 0.568 | 0.472 | 0.371 | 0.325 | 0.521 | 0.378 | 0.292 | 1.22 | 1.13 | 0.876 | 0.39 | 0.845 | 0.448
EPLC-272H | 1.09 | – | 0.666 | 0.122 | 0.319 | 0.214 | 0.279 | 0.424 | – | 0.268 | 0.169 | 0.319 | 0.343 | 0.304 | 1.05 | – | 0.18 | 0.181 | – | –
H3255 | 0.239 | 0.227 | 0.204 | 0.169 | 0.651 | 0.527 | 0.565 | 0.537 | 0.448 | 0.414 | 0.345 | 0.319 | 0.316 | 0.294 | 0.893 | 0.849 | 1.02 | 0.504 | 0.604 | 0.348
HARA | 0.901 | 0.696 | 0.608 | 0.592 | 0.97 | 0.419 | 0.487 | 0.603 | 0.41 | 0.334 | 0.257 | 0.389 | 0.201 | 0.261 | 0.738 | 0.724 | 0.396 | 0.646 | 0.594 | 0.252
HCC-15 | 0.91 | 0.52 | 0.676 | 0.321 | 0.407 | 0.275 | 0.286 | 0.772 | 0.535 | 0.493 | 0.238 | 0.77 | 0.564 | 0.367 | 0.368 | 0.204 | 0.281 | 0.207 | 0.343 | 0.491
HCC-44 | 0.968 | 0.916 | 1.02 | 0.699 | 1.15 | 1.02 | 1.07 | 0.579 | 0.452 | 0.549 | 0.351 | 0.975 | 1.01 | 0.959 | 1.14 | 1.07 | 1.05 | 1.09 | 0.906 | 1.06
HCC-78 | 1.15 | 0.511 | 0.187 | 0.322 | 0.794 | 0.537 | 0.656 | 0.23 | 0.231 | 0.226 | 0.205 | 0.521 | 0.497 | 0.455 | – | – | – | – | 0.615 | 0.432
HCC-366 | 1.2 | – | 0.784 | 0.12 | 0.354 | 0.318 | 0.255 | 0.138 | 0.137 | 0.0849 | 0.141 | 0.422 | 0.36 | 0.38 | – | – | – | – | 0.337 | 0.329
